Measured values reported in patent publication US9034876B2, “Treatment of chronic inflammation with a 1,2,4-triazolo [1,5a] pyridine derivative” (Cephalon, Inc., priority 2010, dated 2015).

Tested on: phospho-STAT3
Assay: CAIA model, paw phospho-STAT3 (Luminex bead assay)
Type: in vivo, female DBA/1 mice
Conditions: Dex 1.5 mg/kg i.p. three times a week (day 6-8)
Procedure: DBA/1 female mice were injected i.v. with purified anti-collagen type II antibodies, then given 25 μg of LPS i.p. three days later to induce arthritis by day 5. Mice that met the arthritis criteria score of 1 per paw were entered into the study. Compound A was provided orally, b.i.d., for all doses tested; Dex was provided at 1.5 mg/kg three times a week, i.p.; and vehicle (PEG400+1% DMSO) was provided orally.
The graphed data was generated using Luminex® bead kits, concentration in units per ml per 3 mg of total protein as determined by the BSA assay. The graphed data represents mean±SEM, statistics were performed using 2-way ANOVA analysis.
To investigate the effect of Compound A on levels of phosphorylated STATs and cytokines in the paws of treated mice, a method was developed whereby synovial fluid and cellular joint extracts could be obtained from the paws and ankles of diseased animals for analysis using multiplex bead arrays [32]. […] Consequently, multiplex analysis was used as the primary method of measuring phosphorylated STATs for all experiments described herein.
Briefly, the front (including carpus) and back (including tarsus) right paws were collected and frozen in dry-ice cooled isopentane and stored at −80° C. until use. The paws were cut to 2 mm×2 mm segments and kept on dry-ice in round bottom polypropylene tubes. Seven hundred microliters tissue extraction buffer containing protease inhibitor cocktail (Calbiochem, San Diego, Calif.) and Halt phosphatase inhibitor cocktail (Thermo Scientific, Rockford, Ill.) or Roche phosphatase inhibitor cocktail (Roche, Indianapolis, Ind.) in tissue extraction reagent I (Invitrogen, Carlesbad, Calif.) were added to each sample. Samples were homogenized frozen using a PT 10-35 Polytron homogenizer. After homogenization, samples were centrifuged at 4° C. for 2000×g for 10 minutes and supernatants re-centrifuged at 4° C. at maximum speed, 14,000×g, for 15 minutes. Supernatants were carefully removed to avoid picking up the top layer of lipids/adipose debris. Protein concentration was measured using a BCA protein assay (Pierce, Rockford, Ill.) and adjusted to 3 mg/ml. A minimum of 25 μl of this extraction was used in the above described protocol using the mouse cytokine 10-plex bead kit (Invitrogen, Carlsbad, Calif.) or phosphorylated STAT1, 3, 5a/b, 3-plex kit (Invitrogen, Carlsbad, Calif.).

SMILES: C[C@@H]1C[C@H]2[C@@H]3CCC4=CC(=O)C=C[C@]4(C)[C@@]3(F)[C@@H](O)C[C@]2(C)[C@@]1(O)C(=O)CO [Dex, Dexamethasone, reference compound]
- time post treatment initiation at which the pSTAT3 reduction was reached: 48 hours
